One assay deals with T1, human NPR1 (Homo sapiens, UniProt P16066).
T1 construct: host or cells: CHO-K1
T1 sequence (P16066 33-1061): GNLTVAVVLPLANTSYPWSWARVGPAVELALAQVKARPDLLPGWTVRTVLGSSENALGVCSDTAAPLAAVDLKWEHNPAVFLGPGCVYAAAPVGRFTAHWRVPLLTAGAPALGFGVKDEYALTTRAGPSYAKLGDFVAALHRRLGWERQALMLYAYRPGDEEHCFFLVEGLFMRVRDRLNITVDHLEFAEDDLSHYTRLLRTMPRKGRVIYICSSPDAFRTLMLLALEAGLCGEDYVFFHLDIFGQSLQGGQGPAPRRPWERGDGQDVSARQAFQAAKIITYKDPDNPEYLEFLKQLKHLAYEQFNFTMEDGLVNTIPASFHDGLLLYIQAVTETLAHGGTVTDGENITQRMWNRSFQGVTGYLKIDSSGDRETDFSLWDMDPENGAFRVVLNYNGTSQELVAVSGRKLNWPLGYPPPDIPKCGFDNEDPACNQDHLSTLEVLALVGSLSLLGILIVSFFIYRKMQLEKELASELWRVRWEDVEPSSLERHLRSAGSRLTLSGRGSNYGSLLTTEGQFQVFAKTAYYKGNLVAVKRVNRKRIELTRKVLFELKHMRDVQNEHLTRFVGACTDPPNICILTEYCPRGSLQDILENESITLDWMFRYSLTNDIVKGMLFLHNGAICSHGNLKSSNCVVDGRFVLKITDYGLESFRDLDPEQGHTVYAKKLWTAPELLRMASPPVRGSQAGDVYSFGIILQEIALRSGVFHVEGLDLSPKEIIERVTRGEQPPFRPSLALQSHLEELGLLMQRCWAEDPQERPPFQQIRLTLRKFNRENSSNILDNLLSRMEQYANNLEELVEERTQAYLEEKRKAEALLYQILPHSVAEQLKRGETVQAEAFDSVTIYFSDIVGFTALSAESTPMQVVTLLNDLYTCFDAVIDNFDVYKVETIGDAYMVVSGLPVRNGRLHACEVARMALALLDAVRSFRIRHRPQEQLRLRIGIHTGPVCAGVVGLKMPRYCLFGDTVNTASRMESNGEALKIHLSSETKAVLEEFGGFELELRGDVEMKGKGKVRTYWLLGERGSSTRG
The assay can be described thus: Cellular cGMP production assay, human NPR1 expressing CHO-K1 cells (CisBio HTRF). As to conditions: for AC50: cGMP production, 30 min at 37° C., 12-point dose-response from 30 μM; for Human NPR1 Amax (% of ANP): maximum cGMP production as percentage of the maximum cGMP produced with ANP. Format: cell-based. The gist of the method:
(§1)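 Cells receive IBMX (1 mM) assay buffer plus test compound over twelve threefold dilutions starting at 30 μM, and cGMP accumulates for 30 min at 37 °C. Lysates are then incubated one hour at room temperature with d2-labelled cGMP and cryptate-labelled antibody before time-resolved fluorescence reading.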
For orientation: TR-FRET usually uses a lanthanide donor and a delayed reading to cut background.

The target in another assay is monkey NPR1 (Macaca fascicularis, UniProt A0A7N9DBT9). Put plainly: Cellular cGMP production assay, monkey NPR1 expressing CHO-K1 cells (CisBio HTRF). In kind it is cell-based. As to conditions: for Monkey NPR1 Amax (% of ANP): maximum cGMP production as percentage of the maximum cGMP produced with ANP. The gist of the method:
as §1

Where [1] appears, read: cGMP production, monkey NPR1 CHO-K1 cells, 30 min at 37° C., 12-point dose-response from 30 μM, read-out: Monkey NPR1 AC50.

Molecules are shown by their SMILES. Like-named read-outs stand apart in the source and are kept apart here.

Chain of monkey NPR1 (A0A7N9DBT9 entry or part of it): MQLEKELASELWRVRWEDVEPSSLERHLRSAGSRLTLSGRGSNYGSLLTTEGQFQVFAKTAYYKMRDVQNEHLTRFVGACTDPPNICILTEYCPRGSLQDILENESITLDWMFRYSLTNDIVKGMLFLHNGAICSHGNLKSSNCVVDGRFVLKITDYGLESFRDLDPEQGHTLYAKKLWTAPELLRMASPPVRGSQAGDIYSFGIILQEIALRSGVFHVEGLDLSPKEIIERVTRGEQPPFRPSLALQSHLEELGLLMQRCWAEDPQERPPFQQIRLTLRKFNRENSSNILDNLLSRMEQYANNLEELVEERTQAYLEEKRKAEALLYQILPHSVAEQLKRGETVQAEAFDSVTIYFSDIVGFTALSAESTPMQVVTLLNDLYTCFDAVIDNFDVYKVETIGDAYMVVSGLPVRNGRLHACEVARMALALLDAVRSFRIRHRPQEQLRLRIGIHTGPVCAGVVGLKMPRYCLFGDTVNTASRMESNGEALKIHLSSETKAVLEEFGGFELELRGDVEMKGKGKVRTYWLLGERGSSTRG

What is called AC50 is the concentration at which the activity in the assay is half-maximal. On to `CC[C@@H](Nc1nc2c(c(N[C@@H](CN(C)C)c3ccccc3)n1)C[C@H](c1ccccc1)CC2)[C@H]1CC[C@H](C(=O)O)CC1` [Compound 165, (1R,4r)-4-((R)-1-(((R)-4-(((R)-2-(dimethylamino)-1-phenylethyl)amino)-6-phenyl-5,6,7,8-tetrahydroquinazolin-2-yl)amino)propyl)cyclohexane-1-carboxylic acid], for which the AC50 at human NPR1 was found to be 1810 nM; at monkey NPR1 (setting [1]) it was 1080 nM. Moreover, the “Human NPR1 Amax (% of ANP)” value at human NPR1 was 90.595 % of ANP. Besides, the “Monkey NPR1 Amax (% of ANP)” value at monkey NPR1 (monkey NPR1 CHO-K1 cells) was 87.861 % of ANP.
On the same counts, the results for `CC[C@@H](Nc1nc2c(c(N[C@@H](CN3C[C@H]4CC[C@@H]3C4)c3cnn(CC)c3)n1)C[C@H](c1ccccc1)CC2)[C@H]1CC[C@H](C(=O)O)CC1` [Compound 122, (1R,4r)-4-((R)-1-(((R)-4-(((R)-2-((1R,4S)-2-azabicyclo[2.2.1]heptan-2-yl)-1-(1-ethyl-1H-pyrazol-4-yl)ethyl)amino)-6-phenyl-5,6,7,8-tetrahydroquinazolin-2-yl)amino)propyl)cyclohexane-1-carboxylic acid] are 574 nM, 411 nM, 102.209 % of ANP and 99.605 % of ANP.
The matching figures for `CC[C@H]([C@H]1CC[C@H](C(=O)O)CC1)N(C)c1nc2c(c(N[C@@H](CN3CCCCC3)c3ccc(=O)n(CC)c3)n1)C[C@H](c1ccccc1)CC2` [Compound 148, (1R,4r)-4-((R)-1-(((R)-4-(((R)-1-(1-ethyl-6-oxo-1,6-dihydropyridin-3-yl)-2-(piperidin-1-yl)ethyl)amino)-6-phenyl-5,6,7,8-tetrahydroquinazolin-2-yl)(methyl)amino)propyl)cyclohexane-1-carboxylic acid]: 1080 nM, 834 nM, 93.518 % of ANP and 102.851 % of ANP.
On to `CC[C@H]([C@H]1CC[C@H](C(=O)O)CC1)N(C)c1nc2c(c(N[C@@H](CN3C4CCCC3CCC4)c3cnn(CC)c3)n1)C[C@H](c1ccccc1)CC2` [Compound 92, (1R,4r)-4-((R)-1-(((R)-4-(((R)-2-((1S,5S)-9-azabicyclo[3.3.1]nonan-9-yl)-1-(1-ethyl-1H-pyrazol-4-yl)ethyl)amino)-6-phenyl-5,6,7,8-tetrahydroquinazolin-2-yl)(methyl)amino)propyl)cyclohexane-1-carboxylic acid], for which, on human NPR1, half-maximal activity (AC50) was put at 317 nM and the “Human NPR1 Amax (% of ANP)” value is on record as 99.678 % of ANP. This compound yielded an AC50 at monkey NPR1 of 249 nM. The “Monkey NPR1 Amax (% of ANP)” value at monkey NPR1 (monkey NPR1 CHO-K1 cells) is given as 99.824 % of ANP.
As to `CC[C@H]([C@H]1CC[C@H](C(=O)O)CC1)N(C)c1nc2c(c(N[C@@H](CN3CCC[C@H](C)C3)c3cnn(C)c3)n1)CN(c1ccccc1F)CC2` [Compound 106, (1R,4r)-4-((R)-1-((6-(2-fluorophenyl)-4-(((R)-1-(1-methyl-1H-pyrazol-4-yl)-2-((S)-3-methylpiperidin-1-yl)ethyl)amino)-5,6,7,8-tetrahydropyrido[4,3-d]pyrimidin-2-yl)(methyl)amino)propyl)cyclohexane-1-carboxylic acid], on human NPR1, the AC50 worked out at 399 nM and the “Human NPR1 Amax (% of ANP)” value is 100.198 % of ANP. Further, the AC50 on monkey NPR1 (setting [1]) was 254 nM. For the same compound, at monkey NPR1 (monkey NPR1 CHO-K1 cells), the “Monkey NPR1 Amax (% of ANP)” value was 104.076 % of ANP.
On the same counts, the results for `CC[C@H]([C@H]1CC[C@H](C(=O)O)CC1)N(C)c1nc2c(c(N[C@@H](CN3CCCCC3)c3cnn(CC)c3)n1)C[C@H](c1cccc(F)c1)CC2` [Compound 91, (1R,4r)-4-((R)-1-(((R)-4-(((R)-1-(1-ethyl-1H-pyrazol-4-yl)-2-(piperidin-1-yl)ethyl)amino)-6-(3-fluorophenyl)-5,6,7,8-tetrahydroquinazolin-2-yl)(methyl)amino)propyl)cyclohexane-1-carboxylic acid] are 315 nM, 98.135 % of ANP, 184 nM and 102.129 % of ANP.
`CC[C@@H](Nc1nc2c(c(N[C@@H](CN3CCCC3)c3ccccc3)n1)CN(c1ccccc1)CC2)[C@H]1CC[C@H](C(=O)O)CC1` [Compound 131, (1R,4r)-4-((R)-1-((6-phenyl-4-(((R)-1-phenyl-2-(pyrrolidin-1-yl)ethyl)amino)-5,6,7,8-tetrahydropyrido[4,3-d]pyrimidin-2-yl)amino)propyl)cyclohexane-1-carboxylic acid]: at human NPR1, the activity was half-maximal at 693 nM (AC50) and the “Human NPR1 Amax (% of ANP)” value is on record as 101.666 % of ANP. In addition, the AC50 on monkey NPR1 (setting [1]) came to 582 nM. In addition, the “Monkey NPR1 Amax (% of ANP)” value on monkey NPR1 (monkey NPR1 CHO-K1 cells) is listed as 109.531 % of ANP.
On the same counts, the results for `CC[C@H]([C@H]1CC[C@H](C(=O)O)CC1)N(C)c1nc2c(c(N[C@@H](CN3CCCC(F)C3)c3cnn(C)c3)n1)C[C@H](c1ccccc1)CC2` (stereo partly drawn) [Compound 156, (1R,4r)-4-((1R)-1-(((6R)-4-(((1R)-2-(3-fluoropiperidin-1-yl)-1-(1-methyl-1H-pyrazol-4-yl)ethyl)amino)-6-phenyl-5,6,7,8-tetrahydroquinazolin-2-yl)(methyl)amino)propyl)cyclohexane-1-carboxylic acid] are 1300 nM, 93.013 % of ANP, 1160 nM and 105.900 % of ANP.
On to `CN(c1nc2c(c(N[C@@H](CN3C4CCCC3CCC4)c3cnn(C)c3)n1)C[C@H](c1ccccc1)CC2)[C@H](C1CC1)[C@H]1CC[C@H](C(=O)O)CC1` [Compound 133, (1R,4r)-4-((R)-(((R)-4-(((R)-2-((1S,5S)-9-azabicyclo[3.3.1]nonan-9-yl)-1-(1-methyl-1H-pyrazol-4-yl)ethyl)amino)-6-phenyl-5,6,7,8-tetrahydroquinazolin-2-yl)(methyl)amino)(cyclopropyl)methyl)cyclohexane-1-carboxylic acid], for which, on human NPR1, the AC50 worked out at 765 nM and the “Human NPR1 Amax (% of ANP)” value is reported as 95.978 % of ANP. Moreover, at monkey NPR1, the AC50 was 647 nM. Also, the “Monkey NPR1 Amax (% of ANP)” value on monkey NPR1 (monkey NPR1 CHO-K1 cells) is listed as 99.809 % of ANP.
On the same counts, the results for `CC[C@H]([C@H]1CC[C@H](C(=O)O)CC1)N(C)c1nc2c(c(N[C@@H](CN3C4CCCC3CC4)c3cn(C)nc3C)n1)C[C@H](c1cccc(F)c1)CC2` [Compound 102, (1R,4r)-4-((1R)-1-(((6R)-4-(((1R)-2-(8-azabicyclo[3.2.1]octan-8-yl)-1-(1,3-dimethyl-1H-pyrazol-4-yl)ethyl)amino)-6-(3-fluorophenyl)-5,6,7,8-tetrahydroquinazolin-2-yl)(methyl)amino)propyl)cyclohexane-1-carboxylic acid] are 382 nM, 96.769 % of ANP, 279 nM and 107.819 % of ANP.
The matching figures for `CC[C@H]([C@H]1CC[C@H](C(=O)O)CC1)N(C)c1nc2c(c(N[C@@H](CN3CCC[C@H](C)C3)c3cnn(C)c3)n1)C[C@H](c1cccc(F)c1)CC2` [Compound 23, (1R,4r)-4-((R)-1-(((R)-6-(3-fluorophenyl)-4-(((R)-1-(1-methyl-1H-pyrazol-4-yl)-2-((S)-3-methylpiperidin-1-yl)ethyl)amino)-5,6,7,8-tetrahydroquinazolin-2-yl)(methyl)amino)propyl)cyclohexane-1-carboxylic acid]: 115 nM, 120.018 % of ANP, 72 nM and 132.182 % of ANP.
On the same counts, the results for `CC[C@H]([C@H]1CC[C@H](C(=O)O)CC1)N(C)c1nc2c(c(N[C@@H](CN3C4CCCC3CC(O)C4)c3cnn(CC)c3)n1)C[C@H](c1cccc(F)c1)CC2` (stereo partly drawn) [Compound 79, (1R,4r)-4-((1R)-1-(((6R)-4-(((1R)-1-(1-ethyl-1H-pyrazol-4-yl)-2-((1R,5S)-3-hydroxy-9-azabicyclo[3.3.1]nonan-9-yl)ethyl)amino)-6-(3-fluorophenyl)-5,6,7,8-tetrahydroquinazolin-2-yl)(methyl)amino)propyl)cyclohexane-1-carboxylic acid] are 257 nM, 101.351 % of ANP, 327 nM and 104.610 % of ANP.

The record behind these values is patent US12129246B1, “Hydroquinazoline derivatives for the treatment of a disease or disorder” (Novartis AG, priority 2023, dated 2024).
